In assay [1] the test system is beet armyworm. Description: Effect on beet armyworm, contact and ingestion test (treated cotton leaf discs). To be noted: Spodoptera exigua, foliar, 120 h; second-instar larvae, sprayed cotton leaf discs, 5 days at 25° C; read-out: BEET ARMYWORM Contact and Ingestion Test LC50, ppm. It is filed as in vivo, S. exigua (beet armyworm). As for the experimental part: (§1) Effect on Tobacco Budworm and Beet Armyworm by Leaf Ingestion and/or Contact.
(§2) Stock solutions of the compounds to be tested having a known concentration were prepared by dissolving weighed amounts in a 90:10 mixture of high-purity acetone and ethanol and these solutions were diluted with distilled water (containing 0.05 percent by weight Tween 20™ surfactant) to obtain the spray solutions of known concentration employed. Greenhouse-grown cotton leaves of uniform age were cut into 2.5 cm diameter discs and one disc was placed in the bottom of each of a number of 30 mL plastic cups. The cups were then sprayed by means of a track sprayer applying 0.055 mL of spray solution per cup. The leaf discs were allowed to dry and then a single second-instar H. virescens (tobacco budworm) or S. exigua (beet armyworm) larva was added to each cup and each cup was capped with a perforated plastic lid. Ten cups were prepared for each insect species and each application rate and five applications rates were usually run. Treated cups were stored for 5 days at 25° C. and were then graded for mortality. Untreated controls and positive controls (cypermethrin) were run simultaneously. The amount of test chemical required to kill half of the larvae (LD50) was calculated.

Assay [2] concerns tobacco budworm. Description: Effect on tobacco budworm, contact and ingestion test (treated cotton leaf discs). Conditions: Heliothis virescens, foliar, 120 h; second-instar larvae, sprayed cotton leaf discs, 5 days at 25° C; read-out: TOBACCO BUDWORM Contact and Ingestion Test LC50, ppm. The class given is in vivo, H. virescens (tobacco budworm). The protocol:
as §1, §2

Assay [3] has as its system beet armyworm. Description: Effect on beet armyworm, contact test (treated Teflon discs). Conditions: Spodoptera exigua, 144 h; second-instar larvae, sprayed Teflon discs 24 hours, then 5 more days on untreated leaf, 25° C; read-out: BEET ARMYWORM Contact Test LC50, ppm. The class given is in vivo, S. exigua (beet armyworm). As for the experimental part: (§3) Effect on Tobacco Budworm and Beet Armyworm by Contact.
(§4) Stock solutions of the compounds to be tested having a known concentration were prepared by dissolving weighed amounts in a 90:10 mixture of high-purity acetone and ethanol and these solutions were diluted with distilled water (containing 0.05 percent by weight Tween 20™ surfactant) to obtain the spray solutions of known concentration employed. Teflon™ discs 5 cm in diameter were placed in plastic petri dishes of slightly larger diameter and these dishes were sprayed by means of a track sprayer applying 0.104 mL of spray solution per cup. The Teflon™ discs were allowed to dry, a single second-instar H. virescens (tobacco budworm) or S. exigua (beet armyworm) larva was placed on each Teflon™ disc, and each disc was capped with a plastic lid. Ten Teflon™ discs were prepared for each application rate and five application rates were usually run. Treated discs were stored for 24 hours at 25° C. and then the Teflon™ disc was removed and replaced with an untreated cotton leaf disc. After 5 more days of storage at 25 ° C. the dishes were graded for mortality. Untreated controls and positive controls (cypermethrin) were run simultaneously. The amount of test chemical required to kill half of the larvae (LD50) was calculated.

Assay [4] concerns tobacco budworm. The assay can be described thus: Effect on tobacco budworm, contact test (treated Teflon discs). Conditions: Heliothis virescens, 144 h; second-instar larvae, sprayed Teflon discs 24 hours, then 5 more days on untreated leaf, 25° C; read-out: TOBACCO BUDWORM Contact Test LC50, ppm. It is filed as in vivo, H. virescens (tobacco budworm). As for the experimental part: as §3, §4

Each structure is given as a SMILES string. Converted amounts (≈) assume the structure as drawn.

For the compound `O=C(Nc1ccc(OC(F)(F)F)cc1)N1CC(c2ccc3ccc(Cl)cc3n2)C(c2ccc(Cl)cc2)=N1` (centres unmarked) [P, 3-(4-Chlorophenyl)-4-(7-chloro-2-quinolinyl)-4,5-dihydro-N-(4-trifluoromethoxyphenyl)-1H-pyrazole-1-carboxamide], the LC50 in the assay with beet armyworm [1] is 40.6 µg/mL (≈ 74.4 µM); in the assay on tobacco budworm [2], 64.8 µg/mL (≈ 119 µM).

Consider `O=C(Nc1ccc(Cl)cc1)N1CC(c2ccc(C(F)(F)F)cn2)C(c2ccc(Cl)cc2)=N1` (centres unmarked) [D, 3-(4-Chlorophenyl)-N-(4-chlorophenyl)-4,5-dihydro-4-(5-trifluoromethyl-2-pyridinyl)-1H-pyrazole-1-carboxamide], for which the LC50 in the assay on beet armyworm [1] amounted to 1.8 µg/mL (≈ 3.76 µM); with beet armyworm [3], 12.6 µg/mL (≈ 26.3 µM); with tobacco budworm [2], 2.1 µg/mL (≈ 4.38 µM); in the assay with tobacco budworm [4], 35.6 µg/mL (≈ 74.3 µM).

Consider `O=C(Nc1ccc(C(F)(F)F)cc1)N1CC(c2cnc(C(F)(F)F)cn2)C(c2ccc(F)cc2)=N1` (centres unmarked) [Y, 4,5-Dihydro-3-(4-fluorophenyl)-N-(4-trifluoromethylphenyl)-4-(5-trifluoromethyl-2-pyrazinyl)-1H-pyrazole-1-carboxamide], for which the figures for the LC50 in the assay with beet armyworm [1] and with beet armyworm [3] were above 25 µg/mL and 10.5 µg/mL (≈ 21.1 µM), respectively.

In the case of `CSc1ccc(NC(=O)N2CC(c3ccc(C(F)(F)F)cn3)C(c3ccc(Cl)cc3)=N2)cc1` (centres unmarked) [Compound A, 3-(4-Chlorophenyl)-4,5-dihydro-N-(4-(methylthio)phenyl)-4-(5-trifluoromethyl-2-pyridinyl)-1H-pyrazole-1-carboxamide], the LC50 is 107 µg/mL (≈ 218 µM) in the assay with beet armyworm [1] and above 400 µg/mL in the assay with tobacco budworm [2].

In the case of `O=C(Nc1ccc(C(F)(F)F)cc1)N1CC(c2ccc(Cl)nn2)C(c2ccc(Cl)cc2)=N1` (centres unmarked) [AA, 4-(6-Chloro-3-pyridazinyl)-3-(4-chlorophenyl)-4,5-dihydro-N-(4-trifluoromethylphenyl)-1H-pyrazole-1-carboxamide], the LC50 in the assay with beet armyworm [1] was 20.3 µg/mL (≈ 42.3 µM); in the assay on beet armyworm [3], 11.7 µg/mL (≈ 24.4 µM).

As for `O=C(Nc1ccc(C(F)(F)F)cc1)N1CC(c2ccc(C(F)(F)F)cn2)C(c2ccc(Cl)cc2)=N1` (centres unmarked) [B, 3-(4-Chorophenyl)-4,5-dihydro-N-(4-trifluoromethylphenyl)-4-(5-trifluoromethyl-2-pyridinyl)-1H-pyrazole-1-carboxamide], the median lethal concentration (LC50) is 10 µg/mL (≈ 19.5 µM) in the assay with beet armyworm [1], above 80 µg/mL in the assay on beet armyworm [3], 7.6 µg/mL (≈ 14.8 µM) in the assay with tobacco budworm [2] and above 80 µg/mL in the assay on tobacco budworm [4].

For `O=C(Nc1ccc(Cl)cc1)N1CC(c2ccc(C(F)(F)F)cn2)C(c2ccc(F)cc2)=N1` (centres unmarked) [I, N-(4-Chlorophenyl)-4,5-dihydro-3-(4-fluorophenyl)-4-(5-trifluoromethyl-2-pyridinyl)-1H-pyrazole-1-carboxamide], the LC50 in the assay on beet armyworm [1] is 2.1 µg/mL (≈ 4.54 µM); with beet armyworm [3], below 5 µg/mL; in the assay with tobacco budworm [2] it was 1.3 µg/mL (≈ 2.81 µM); in the assay on tobacco budworm [4], 49.7 µg/mL (≈ 107 µM).

`O=C(Nc1ccc(Cl)cc1)N1CC(c2cccc(F)n2)C(c2ccc(F)cc2)=N1` (centres unmarked) [F, N-(4-Chlorophenyl)-4,5-dihydro-3-(4-fluorophenyl)-4-(6-fluoro-2-pyridinyl)-1H-pyrazole-1-carboxamide]: the LC50 in the assay on beet armyworm [1] is above 800 µg/mL; in the assay on tobacco budworm [2], 606 µg/mL (≈ 1470 µM).

For `O=C(Nc1ccc(OC(F)(F)F)cc1)N1CC(c2cccnc2)C(c2ccccc2)=N1` (centres unmarked) [R, 4,5-Dihydro-3-phenyl-4-(3-pyridinyl)-N-(4-trifluoromethoxyphenyl)-1H-pyrazole-1-carboxamide], the LC50 is above 400 µg/mL in the assay on beet armyworm [1] and 186 µg/mL (≈ 436 µM) in the assay on tobacco budworm [2].

On to `O=C(Nc1ccc(OC(F)(F)F)cc1)N1CC(c2cc(C(F)(F)F)nc(C(F)(F)F)c2)C(c2ccccc2)=N1` (centres unmarked) [U, 4,5-Dihydro-4-(2,6-di(trifluoromethyl)-4-pyridinyl)-3-phenyl-N-(4-trifluoromethoxyphenyl)-1H-pyrazole-1-carboxamide], for which the LC50 with beet armyworm [1] is 37.9 µg/mL (≈ 67.4 µM); with beet armyworm [3], above 100 µg/mL.

Take `O=C(Nc1ccc(OC(F)(F)F)cc1)N1CC(c2cccc(F)n2)C(c2ccc(F)cc2)=N1` (centres unmarked) [E, 4,5-Dihydro-3-(4-fluorophenyl)-4-(6-fluoro-2-pyridinyl)-N-(4-trifluoromethoxyphenyl)-1H-pyrazole-1-carboxamide]: the figures for the LC50 in the assay with beet armyworm [1] and in the assay with tobacco budworm [2] were 13.6 µg/mL (≈ 29.4 µM) and 70.7 µg/mL (≈ 153 µM), respectively.

As to `O=C(Nc1ccc(OC(F)(F)F)cc1)N1CC(c2cnc(C(F)(F)F)nc2)C(c2ccc(F)cc2)=N1` (centres unmarked) [W, 4,5-Dihydro-3-(4-fluorophenyl)-N-(4-trifluoromethoxyphenyl)-4-(2-trifluoromethyl-5-pyrimidinyl)-1-H-pyrazole-1-carboxamide], the LC50 in the assay with beet armyworm [1] stood at 7.5 µg/mL (≈ 14.6 µM); with tobacco budworm [2], 6.1 µg/mL (≈ 11.9 µM).

Turning to `O=C(Nc1ccc(OC(F)(F)F)cc1)N1CC(c2cnc3ccc(Cl)cc3c2)C(c2ccccc2)=N1` (centres unmarked) [K, 4-(6-Chloro-3-quinolinyl)-4,5-dihydro-3-phenyl-N-(4-trifluoromethoxyphenyl)-1H-pyrazole-1-carboxamide], the median lethal concentration (LC50) in the assay on beet armyworm [1] amounted to 29.7 µg/mL (≈ 58.1 µM); with tobacco budworm [2] it was 70.7 µg/mL (≈ 138 µM).

Turning to `O=C(Nc1ccc(SC(F)(F)F)cc1)N1CC(c2ccc(C(F)(F)F)cn2)C(c2ccc(F)cc2)=N1` (centres unmarked) [L, 4,5-Dihydro-3-(4-fluorophenyl)-4-(5-trifluoromethyl-2-pyridinyl)-N-((4-trifluoromethylthio)phenyl)-1H-pyrazol-1-carboxamide], the LC50 is 7.9 µg/mL (≈ 14.9 µM) in the assay on beet armyworm [1], above 80 µg/mL with beet armyworm [3], 4.2 µg/mL (≈ 7.95 µM) with tobacco budworm [2] and 63.5 µg/mL (≈ 120 µM) with tobacco budworm [4].

In the case of `O=C(Nc1ccc(OC(F)(F)F)cc1)N1CC(c2ccc(C(F)(F)F)cn2)C(c2ccc(F)cc2)=N1` (centres unmarked) [H, 4,5-Dihydro-3-(4-fluorophenyl)-N-(4-trifluoromethoxyphenyl)-4-(5-trifluoromethyl-2-pyridinyl)-1H-pyrazole-1-carboxamide], the LC50 in the assay on beet armyworm [1] is 1.3 µg/mL (≈ 2.54 µM); with beet armyworm [3], below 5 µg/mL; with tobacco budworm [2], 2.3 µg/mL (≈ 4.49 µM); in the assay on tobacco budworm [4], 23.3 µg/mL (≈ 45.5 µM).

As to `O=C(Nc1ccc(C(F)(F)F)cc1)N1CC(c2cncc(Cl)n2)C(c2ccc(F)cc2)=N1` (centres unmarked) [Z, 4-(6-Chloro-2-pyrazinyl)-4,5-dihydro-3-(4-fluorophenyl)-N-(4-trifluoromethylphenyl)-1H-pyrazole-1-carboxamide], the LC50 in the assay with beet armyworm [1] was above 100 µg/mL; in the assay on beet armyworm [3] it was 75.8 µg/mL (≈ 163 µM).

`O=C(Nc1ccc(OC(F)(F)F)cc1)N1CC(c2ccc3cc(Cl)ccc3n2)C(c2ccc(Cl)cc2)=N1` (centres unmarked) [O, 3-(4-Chlorophenyl)-4-(6-chloro-2-quinolinyl)-4,5-dihydro-N-(4-trifluoromethoxyphenyl)-1H-pyrazole-1-carboxamide]: the LC50 in the assay with beet armyworm [1] and in the assay with tobacco budworm [2] was above 200 µg/mL in each case.

In the case of `O=C(Nc1ccc(OC(F)(F)F)cc1)N1CC(c2ccc(C(F)(F)F)cn2)C(c2ccc(Cl)cc2)=N1` (centres unmarked) [C, 3-(4-Chlorophenyl)-4,5-dihydro-N-(4-trifluoromethoxyphenyl)-4-(5-trifluoromethyl-2-pyridinyl)-1H-pyrazole-1-carboxamide], the LC50 with beet armyworm [1] worked out at 7.9 µg/mL (≈ 14.9 µM); in the assay with tobacco budworm [2], 9.1 µg/mL (≈ 17.2 µM).

Regarding `O=C(Nc1ccc(OC(F)(F)F)cc1)N1CC(c2cncnc2)C(c2ccc(F)cc2)=N1` (centres unmarked) [S, 4,5-Dihydro-3-(4-fluorophenyl)-4-(5-pyrimidinyl)-N-(4-trifluoromethoxyphenyl)-1H-pyrazole-1-carboxamide], the LC50 in the assay with beet armyworm [1] turned out to be 490 µg/mL (≈ 1100 µM); in the assay with tobacco budworm [2], 50 µg/mL (≈ 112 µM).

`O=C(Nc1ccc(OC(F)(F)F)cc1)N1CC(c2cncnc2)C(c2ccccc2)=N1` (centres unmarked) [J, 4,5-Dihydro-3-phenyl-4-(5-pyrimidinyl),N-(4-trifluoromethoxyphenyl)-1H-pyrazole-1-carboxamide]: the median lethal concentration (LC50) with beet armyworm [1] was above 800 µg/mL; in the assay on tobacco budworm [2], 135 µg/mL (≈ 316 µM).

Take `N#Cc1ccc(C2CN(C(=O)Nc3ccc(OC(F)(F)F)cc3)N=C2c2ccc(Cl)cc2)nc1` (centres unmarked) [N]: the LC50 worked out at 2.1 µg/mL (≈ 4.32 µM) in the assay with beet armyworm [1], 7.1 µg/mL (≈ 14.6 µM) in the assay with beet armyworm [3], 1.5 µg/mL (≈ 3.09 µM) with tobacco budworm [2] and 18.3 µg/mL (≈ 37.7 µM) with tobacco budworm [4].

On to `O=C(Nc1ccc(OC(F)(F)F)cc1)N1CC(c2cnc3cc(Cl)ccc3c2)C(c2ccccc2)=N1` (centres unmarked) [Q, 4-(7-Chloro-3-quinolinyl)-4,5-dihydro-3-phenyl-N-(4-trifluoromethoxyphenyl)-1H-pyrazole-1-carboxamide], for which the figures for the LC50 in the assay on beet armyworm [1] and with tobacco budworm [2] were 13.4 µg/mL (≈ 26.2 µM) and 30.8 µg/mL (≈ 60.3 µM), respectively.
